In patent US20260118350A1, “Fluorescent Probes for Peroxidase-Mediated Fluorescent Signal Amplification” (Seoul National University R&DB Foundation, priority 2024, published 2026):
Entries after “also recorded” stand apart in the source; their conditions may differ.

What was measured:
Matrix-V5-APEX2 = test: Pre-embedding osmium treatment CLEM of JFT1-stained fixed Matrix-V5-APEX2 cells; type: cell-based; details: 500 μM JFT1, 1 mM H2O2, 5 min; 0.4% OsO4, dehydration, resin embedding, 100 nm ultrathin section
Method: To obtain the SEM-based CLEM images via pre-embedding osmium treatment procedure (FIG. 2C, lower), cells were fixed with 2.5% glutaraldehyde (Electron Microscopy Sciences, cat. No. 16200) and 2% paraformaldehyde (Electron Microscopy Sciences, cat. No. 19210) in 0.1 M cacodylate solution (pH 7.0) for 30 min at 4° C. After washing, 20 mM glycine solution was used for quenching unreacted aldehyde. Next, JFT1 probe labeling with 500 μM JFT1 and 0.5-1 mM H2O2, was conducted for 5 min. Next, JFT1-labeled cells were post-fixed with 0.4% osmium tetroxide (OsO4) containing 1.5% potassium ferrocyanide in distilled water for 30 min at 4° C. and en bloc in 1% uranyl acetate (EMS, USA, cat. No. 22400) overnight and dehydrated with a graded ethanol series. The samples were then embedded with an EMBed-812 embedding kit (Electron Microscopy Sciences, USA, cat. No. 14120) and polymerized in an oven at 60° C. […]
Given the significance of osmium staining in EM sample preparation, the preservation of JF and JFT1 fluorescence after OsO4 treatment was tested. Remarkably, both JF- and JFT1-stained APEX2-expressing regions retained 70-80% of the original osmium-resistant fluorescence intensity even after osmium treatment (0.1% OsO4), facilitating their detection using confocal microscopy (FIG. 2D). […]

TOM20-V5-APEX2 = test: Fixed-cell APEX labeling with TOM20-V5-APEX2 (confocal colocalization, line scan); type: cell-based, Human
Method: HeLa cells were transiently transfected with the APEX2-POI construct using PEI when cells reached approximately 70% confluency, following the protocol provided by the production company of PEI. After transfection and protein expression, the cells were fixed with 4% PFA in 1×DPBS for 15 minutes at room temperature. Subsequently, the cells were washed three times with DPBS. For the APEX reaction, JFT probes (100-500 μM) and H2O2 (0.5-1 mM) were used in 0.1 M PHEMS buffer for the specified time points. The APEX2-mediated reaction was quenched using a quencher solution (a mixture of sodium ascorbate, trolox, and sodium azide, see PMID: 23371551), and the cells were washed three times with DPBS buffer. For immunofluorescence imaging, the cells were permeabilized with −20° C. methanol for 5 minutes, followed by the standard immunofluorescence staining protocol. The detection of JFT fluorescence and immunofluorescence was performed using the GFP channel (excitation at 488 nm), RFP channel (excitation at 561 nm), and Cy5 channel (excitation at 647 nm) of a confocal light microscope 428 (FV3000, Olympus, Japan). […]

organelle-targeted APEX2 = test: Fixed-cell FLEX staining of organelle-targeted APEX2-POIs; type: cell-based, Human; details: fixed cells, PHEMS buffer 100 mM pH 7.4
Method: HeLa cells were transiently transfected with the APEX2-POI construct using PEI when cells reached approximately 70% confluency, following the protocol provided by the production company of PEI. After transfection and protein expression, the cells were fixed with 4% PFA in 1×DPBS for 15 minutes at room temperature. Subsequently, the cells were washed three times with DPBS. For the APEX reaction, JFT probes (100-500 μM) and H2O2 (0.5-1 mM) were used in 0.1 M PHEMS buffer for the specified time points. […] The detection of JFT fluorescence and immunofluorescence was performed using the GFP channel (excitation at 488 nm), RFP channel (excitation at 561 nm), and Cy5 channel (excitation at 647 nm) of a confocal light microscope 428 (FV3000, Olympus, Japan).
It was assessed whether JFT1 could react with APEX2 targeting various organelles under fixed conditions. […] Furthermore, JFT1 effectively generated a fluorescence signal with the APEX2-tagged POIs (APEX2-POIs) within specific compartments, including the mitochondrial matrix (Matrix-V5-APEX2), nucleus (V5-APEX2-NLS), and ER lumen (SEC61B-V5-APEX2) under fixed-cell conditions. […] These findings validate the wide applicability of JFT1 for APEX2-mediated fluorescence signal amplification (FLEX) in various subcellular organelles. […]

[1] = Photophysical properties in buffer (absorption, fluorescence); type: physicochemical
Method: These photophysical properties render the JF probes suitable for detection in the RFP channel (excitation at 561 nm, fluorescence emission filter: 565-620 nm). […] The absorbance spectra largely shifted from 515 (pH 7.4) to 416 nm when the probe was incubated at pH 6.0. […] This property enables the detection of JF probes in the GFP channel; however, the fluorescence intensity was negligible compared to that of GFP or GFP variant proteins (mEosEM etc.).

fluorescence signal after pre-embedding steps (Matrix-V5-APEX2): well-preserved
green fluorescence Imax ([1]; acidic pH (pH<7), excitation 405 or 450 nm): 520 nm
absorbance spectra maximum ([1]; pH 6.0): 416 nm
absorbance spectra maximum ([1]; pH 7.4): 515 nm
SMILES: OCCn1cc(C[n+]2c(/C=C/c3ccc(O)cc3)sc3ccccc32)nn1 [JFT1, (E)-3-((1-(2-hydroxyethyl)-1H-1,2,3-triazol-4-yl)methyl)-2-(4-hydroxystyryl)benzo[d]thiazol-3-ium]
labeling pattern by line scan analysis vs anti-V5 stain (TOM20-V5-APEX2; fixed cells, TOM20-V5-APEX2, RFP signal): most optimal and restricted labeling pattern; also recorded: most well-matched pattern
Pearson correlation coefficient (r) between probe-labeling region (RFP signal) and enzyme-expressed region (anti-V5 stain) (TOM20-V5-APEX2; fixed sample, TOM20-V5-APEX2): 0.91
fluorescence signal in GFP channel (organelle-targeted APEX2): weak green fluorescence signal
fluorescence signal in RFP channel (organelle-targeted APEX2): strong red fluorescence signal
